Key:
[1] = target: T1, T7 RNA polymerase (Escherichia phage T7, UniProt P00573); test: Cell-free in vitro transcription with T7 RNA polymerase (tC^O TP/CTP ratios 0-100%); format: biochemical, bacteriophage
T1 construct: purchased Thermo Scientific

[2] = Steady state absorption, emission and fluorescence quantum yield of tC^O-modified RNA transcripts; format: physicochemical; settings: free triphosphate
Experimental: A spectroscopic approach was used to quantify the incorporation efficiency of tC^O TP, compared to the canonical CTP. To enable this, all RNA transcripts were purified using a Monarch RNA Cleanup kit, ensuring complete removal of unreacted tC^O TP.
The tC^O-RNA products from the cell-free transcription reactions (prior to polyadenylation and capping, see Methods: Bio for details) were measured as received, i.e. in RNAse free Milli Q water. All measurements were carried out at room temperature (ca. 22° C.) in a 3.0 mm path length quartz cuvette, with a sample volume of ca. 60 μL.
Absorption spectra were recorded on a Cary 5000 (Varian Technologies) spectrophotometer with a wavelength interval of 1.0 nm, integration time of 0.1 s, and a spectral band width (SBW) of 1 nm. All spectra were baseline corrected by subtracting the corresponding absorption from the solvent only. A second-order polynomial Savitzky-Golay (five points) smoothing filter was applied to all spectra. […]
Emission spectra were recorded on a SPEX Fluorolog (Jobin Yvon Horiba) fluorimeter with excitation at 356 nm. […]
Sample fluorescence quantum yields (ΦF) were determined relative to a solution of quinine sulphate (Sigma) in 0.5 M H2SO4 (ΦF,REF=0.546) and calculated according to equation S2. […]

[3] = target: T2, SP6 RNA polymerase (Enterobacteria phage SP6, UniProt P06221); test: Cell-free in vitro transcription with SP6 RNA polymerase (tC^O TP/CTP ratios 0-100%); format: biochemical, bacteriophage; settings: tC^O TP/canonical CTP ratios 0 to 100%, agarose bleach gel
T2 construct: purchased Thermo Scientific
T2 sequence (P06221 1-874): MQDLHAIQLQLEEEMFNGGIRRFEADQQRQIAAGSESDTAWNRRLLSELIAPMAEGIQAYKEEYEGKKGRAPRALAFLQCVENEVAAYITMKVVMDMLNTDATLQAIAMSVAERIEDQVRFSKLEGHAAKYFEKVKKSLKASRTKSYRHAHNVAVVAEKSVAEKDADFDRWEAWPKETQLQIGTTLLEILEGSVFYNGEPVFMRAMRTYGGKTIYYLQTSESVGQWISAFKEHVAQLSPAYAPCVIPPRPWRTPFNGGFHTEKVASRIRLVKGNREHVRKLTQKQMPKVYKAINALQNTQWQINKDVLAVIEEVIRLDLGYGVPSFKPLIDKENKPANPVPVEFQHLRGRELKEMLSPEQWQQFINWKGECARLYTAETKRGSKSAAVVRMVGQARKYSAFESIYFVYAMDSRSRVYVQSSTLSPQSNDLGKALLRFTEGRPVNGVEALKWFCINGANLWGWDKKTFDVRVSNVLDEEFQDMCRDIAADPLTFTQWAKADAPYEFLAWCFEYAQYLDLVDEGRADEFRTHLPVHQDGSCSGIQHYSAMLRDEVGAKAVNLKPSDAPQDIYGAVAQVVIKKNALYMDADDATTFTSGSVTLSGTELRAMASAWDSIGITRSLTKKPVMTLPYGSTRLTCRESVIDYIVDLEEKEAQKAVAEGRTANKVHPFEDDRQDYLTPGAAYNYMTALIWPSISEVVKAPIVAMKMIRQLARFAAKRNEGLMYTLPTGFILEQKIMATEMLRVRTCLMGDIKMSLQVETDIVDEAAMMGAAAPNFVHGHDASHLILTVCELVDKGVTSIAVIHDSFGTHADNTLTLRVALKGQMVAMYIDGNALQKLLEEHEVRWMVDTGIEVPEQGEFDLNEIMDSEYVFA

T1 sequence (P00573 whole entry): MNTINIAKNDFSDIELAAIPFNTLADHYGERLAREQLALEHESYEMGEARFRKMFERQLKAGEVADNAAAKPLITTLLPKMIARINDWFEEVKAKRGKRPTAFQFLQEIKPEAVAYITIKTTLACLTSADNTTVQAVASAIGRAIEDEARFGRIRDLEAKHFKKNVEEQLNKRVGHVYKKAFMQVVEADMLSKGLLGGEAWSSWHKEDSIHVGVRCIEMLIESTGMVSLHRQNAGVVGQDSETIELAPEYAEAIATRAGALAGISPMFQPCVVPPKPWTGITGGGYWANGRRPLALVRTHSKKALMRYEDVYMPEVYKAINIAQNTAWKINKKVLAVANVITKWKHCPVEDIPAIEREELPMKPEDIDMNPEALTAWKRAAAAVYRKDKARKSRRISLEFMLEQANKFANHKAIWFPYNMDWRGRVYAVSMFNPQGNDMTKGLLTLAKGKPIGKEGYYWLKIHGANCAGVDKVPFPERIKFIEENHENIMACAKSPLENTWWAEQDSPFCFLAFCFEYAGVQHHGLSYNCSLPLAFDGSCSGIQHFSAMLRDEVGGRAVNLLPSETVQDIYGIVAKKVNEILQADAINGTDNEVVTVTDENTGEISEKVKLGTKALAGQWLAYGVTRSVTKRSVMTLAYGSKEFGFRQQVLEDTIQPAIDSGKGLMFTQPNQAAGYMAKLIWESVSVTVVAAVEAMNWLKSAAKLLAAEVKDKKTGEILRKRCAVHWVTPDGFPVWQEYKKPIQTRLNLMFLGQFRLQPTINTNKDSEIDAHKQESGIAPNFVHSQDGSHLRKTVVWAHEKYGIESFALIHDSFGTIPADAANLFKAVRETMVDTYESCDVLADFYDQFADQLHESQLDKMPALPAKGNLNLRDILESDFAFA

With “((2R,3S,4R,5R)-3,4-dihydroxy-5-(2-oxo-2,10-dihydro-3H-benzo[b]pyrimido[4,5-e][1,4]oxazin-3-yl)tetrahydrofuran-2-yl)methyl triphosphate [tC^O TP]” the “kC/ktC^O, ratio of first-order rate constants for incorporation of CTP vs. tC^O TP” value ([1]; calculated from absorption at 260 nm and 370 nm of purified transcripts) was 0.96-1.4, the “transcription and tC^O incorporation into full-length H2B:GFP mRNA” value ([1]; tC^O TP/canonical CTP ratios 0 to 100%, agarose bleach gel) was “Efficient transcription and tC^O incorporation” and the “tC^O-band absorption λmax” value [2] was 360 nm. For the same substance, the “transcription and tC^O incorporation into full-length H2B:GFP mRNA” value [3] was “Efficient transcription and tC^O incorporation”.

Source: patent publication US20230219995A1, “FLUORESCENT CYTOSINE ANALOGUES AND THEIR APPLICATION IN TRANSCRIPTION AND TRANSLATION” (STEALTH LABELS BIOTECH AB, priority 2020, published 2023)
